Columns and labels:
Details in all cases: Homo sapiens
[1] = system: CEM-SS; assay: Effective concentration of compound required to reduce the cytopathic effect of HIV-1RF in CEM-SS cells by 50%; format: functional, cell-based
[2] = system: MT4; assay: Effective concentration of compound required to reduce the cytopathic effect of HIV-2ROD in MT-4 cells by 50%; format: functional, cell-based
[3] = system: MT4; assay: Concentration of compound required to reduce the cellular viability in uninfected MT-4 cells by 50%; format: functional
[4] = system: CEM-SS; assay: Concentration of compound required to reduce the cellular viability in uninfected CEM-SS cells by 50%; format: functional
[5] = system: MT4; assay: Effective concentration of compound required to reduce the cytopathic effect of HIV-1 IIIB in MT-4 cells by 50%; format: functional, cell-based

EC50 [1] | Structure (SMILES) | EC50 [2] | CC50 [3] | CC50 [4] | EC50 [5]
5.17 µM | CC(C)CCCC(C)[C@H]1CC[C@H]2[C@@H]3CCC4C[C@@H](CCC=C(c5cc(Cl)c(OCc6ccc(-c7ccccc7C(=O)O)cc6)c(C(=O)O)c5)c5cc(Cl)c(OCc6ccc(-c7ccccc7C(=O)O)cc6)c(C(=O)O)c5)CC[C@]4(C)[C@H]3CC[C@]12C (stereo not given in full) | > 125 µM | > 125 µM | > 200 µM | 12.1 µM
> 100 µM | CC(C)CCCC(C)[C@H]1CC[C@H]2[C@@H]3CCC4C[C@@H](CCC=C(c5cc(Cl)c(OCc6ccc(-c7ccc(C(=O)O)cc7)cc6)c(C(=O)O)c5)c5cc(Cl)c(OCc6ccc(-c7ccc(C(=O)O)cc7)cc6)c(C(=O)O)c5)CC[C@]4(C)[C@H]3CC[C@]12C (stereo not given in full) | > 80 µM | 80 µM | > 100 µM | > 80 µM
1.78 µM | CC(C)CCCC(C)[C@H]1CC[C@H]2[C@@H]3CCC4C[C@@H](CCC=C(c5cc(Cl)c(OCc6ccc(CC(=O)O)cc6)c(C(=O)O)c5)c5cc(Cl)c(OCc6ccc(CC(=O)O)cc6)c(C(=O)O)c5)CC[C@]4(C)[C@H]3CC[C@]12C (stereo not given in full) | 124 µM | > 125 µM | 133 µM | 4.4 µM
 | CC(C)CCCC(C)[C@H]1CC[C@H]2[C@@H]3CCC4C[C@@H](CCC=C(c5cc(Cl)c(OCc6ccc(C(=O)O)cc6)c(C(=O)O)c5)c5cc(Cl)c(OCc6ccc(C(=O)O)cc6)c(C(=O)O)c5)CC[C@]4(C)[C@H]3CC[C@]12C (stereo not given in full) | 22 µM | 88 µM | 72 µM | 
 | CC(C)CCCC(C)[C@H]1CC[C@H]2[C@@H]3CCC4C[C@@H](CCC=C(c5cc(Cl)c(OCc6cccc(C(=O)O)c6)c(C(=O)O)c5)c5cc(Cl)c(OCc6cccc(C(=O)O)c6)c(C(=O)O)c5)CC[C@]4(C)[C@H]3CC[C@]12C (stereo not given in full) |  | 29 µM | > 316 µM | 
 | CC(C)CCCC(C)[C@H]1CC[C@H]2[C@@H]3CCC4C[C@@H](CCC=C(c5cc(Cl)c(O)c(C(=O)O)c5)c5cc(Cl)c(O)c(C(=O)O)c5)CC[C@]4(C)[C@H]3CC[C@]12C (stereo not given in full) |  | > 200 µM | > 200 µM | 

Structure (SMILES) | EC50 [1] | EC50 [2] | CC50 [3] | CC50 [4] | EC50 [5]
CC(C)CCCC(C)[C@H]1CC[C@H]2[C@@H]3CCC4C[C@@H](CCC=C(c5cc(Cl)c(OCc6ccc(-c7cccc(C(=O)O)c7)cc6)c(C(=O)O)c5)c5cc(Cl)c(OCc6ccc(-c7cccc(C(=O)O)c7)cc6)c(C(=O)O)c5)CC[C@]4(C)[C@H]3CC[C@]12C (stereo not given in full) | 6.11 µM | > 95 µM | 95 µM | > 200 µM | 14.5 µM
CC(C)CCCC(C)[C@H]1CC[C@H]2[C@@H]3CCC4C[C@@H](CCC=C(c5cc(Cl)c(OCc6ccccc6C(=O)O)c(C(=O)O)c5)c5cc(Cl)c(OCc6ccccc6C(=O)O)c(C(=O)O)c5)CC[C@]4(C)[C@H]3CC[C@]12C (stereo not given in full) | 39.8 µM |  | 37 µM | > 316 µM | 

— ChEMBL document CHEMBL1132736, “Identification of optimal anion spacing for anti-HIV activity in a series of cosalane tetracarboxylates” (Bioorg Med Chem Lett, 2000)
